Experimental data taken from patent publication US20260242478A1, “ANTIBODIES FOR TARGETING PSMA AND CD28 AND USES THEREOF” (Janux Therapeutics, Inc., priority 2023, published 2026).
Where no end group is shown, it is not given here.

test system: anti-CD28 scFv; assay: Panning ELISA of clonal phage, anti-CD28 scFv, with or without CD28 soluble protein (Peptide-9 library); format: binding; details: Peptide-9 library, background (no anti-CD28 scFv)
Description: Clonal phage were harvested as crude supernatants and screened via standard enzyme linked immunosorbent assays (ELISAs). […] Prior to the addition of clonal phage, wells were incubated with blocking buffer and CD28 soluble protein or blocking buffer alone. Without washing or aspirating, clonal phage supernatants were then added to the wells and incubated for a short time. Wells were then washed followed by detection of bound phage using a horse radish peroxidase conjugated anti-M13 antibody. Clonal phage of interest were then sent for sequence analysis.

Sequence of anti-CD28 scFv (as listed by the source): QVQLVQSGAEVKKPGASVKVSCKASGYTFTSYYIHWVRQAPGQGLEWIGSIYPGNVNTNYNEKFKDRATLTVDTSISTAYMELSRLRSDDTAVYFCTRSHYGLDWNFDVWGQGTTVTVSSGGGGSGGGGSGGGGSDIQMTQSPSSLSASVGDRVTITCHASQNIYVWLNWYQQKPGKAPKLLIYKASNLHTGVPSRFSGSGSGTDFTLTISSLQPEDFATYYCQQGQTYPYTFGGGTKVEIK

For Phage-132 (MDWCPTYLWFECFN), which Background signal is on record?
The Background signal was 0.205.

For “Phage-40 (MDWCPIDMWDQCFN; not fully specified; cysteine pairing not given here)”, which Background signal is on record?
Its Background signal is 0.061.

How did the Background signal turn out when Phage-432 (IDWCPIIQGLPCFA) was run?
The Background signal was 0.058.

How did the Background signal turn out when Phage-439 (MDWCPRDRWDVCFA) was run?
The Background signal was 0.073.

Which Background signal does the source give for Phage-109 (MDWCPKNLWHVCFN) here?
The Background signal was 0.081.

With “Phage-61 (MVSCPTTMWNRCFN; left off: large carriers)” as the substance, how does the Background signal read?
The Background signal was 0.079.

For Phage-420 (MFWCPSTMWNRCFD), which Background signal is on record?
Its Background signal is 0.063.

How did the Background signal turn out when Phage-425 (MDLCPTAMWNRCFY) was run?
Its Background signal is 0.063.

How did the Background signal turn out when Phage-418 (MYWCPKYMWSECFA) was run?
The Background signal was 0.072.

Which Background signal does the source give for Phage-135 (MDWCPKFLWHECFS) here?
Its Background signal is 0.065.

Phage-423 (INLCPTPMWNRCWL) was tested. Which Background signal did it give?
The Background signal was 0.119.

Which Background signal does the source give for Phage-419 (VDWCPAHMWNECYN) here?
Its Background signal is 0.208.

Which Background signal does the source give for Phage-139 (MDWCPRDLWDVCFA) here?
Its Background signal is 0.096.

For “Phage-46 (MHWCPIDLWAECYA; not fully specified; cysteine pairing not given here)”, which Background signal is on record?
The Background signal was 0.082.

Phage-417 (IYWCPTAMWNRCSA) was tested. Which Background signal did it give?
The Background signal was 0.086.

With “Phage-42 (MDWCPRHLWVHCFN; not fully specified; cysteine pairing not given here)” as the substance, how does the Background signal read?
Its Background signal is 0.071.

How did the Background signal turn out when Phage-442 (IYWCPIDRWNDCYN) was run?
Its Background signal is 0.177.

With Phage-437 (MDWCPVDRWADCFN) as the substance, how does the Background signal read?
Its Background signal is 0.071.

Phage-114 (MDWCPRYLWFECFA) was tested. Which Background signal did it give?
The Background signal was 0.066.

How did the Background signal turn out when Phage-445 (MDWCPRARWHDCFF) was run?
Its Background signal is 0.097.

With Phage-424 (ITQCPSTMWNRCSV) as the substance, how does the Background signal read?
The Background signal was 0.067.

With Phage-127 (MDWCPRALWNECFA) as the substance, how does the Background signal read?
The Background signal was 0.080.

How did the Background signal turn out when Phage-406 (MNWCPIDMWTECFN) was run?
The Background signal was 0.245.

How did the Background signal turn out when Phage-136 (MHWCPIYLWDECFN) was run?
Its Background signal is 0.071.

Which Background signal does the source give for Phage-113 (MDWCPRDLWNVCFF) here?
Its Background signal is 0.164.

Which Background signal does the source give for Phage-131 (MDWCPRSLWIYCFN) here?
Its Background signal is 0.113.

How did the Background signal turn out when Phage-403 (MSWCPWDMWNECFA) was run?
Its Background signal is 0.069.

With Phage-115 (MDWCPRYLWHECFN) as the substance, how does the Background signal read?
Its Background signal is 0.105.

With “Phage-54 (MNWCPRDMWYQCFN; not fully specified; cysteine pairing not given here)” as the substance, how does the Background signal read?
Its Background signal is 0.068.

Which Background signal does the source give for Phage-413 (MDWCPSDMWSNCFN) here?
Its Background signal is 0.070.

For Phage-450 (EDWCPTDVWPYCFS), which Background signal is on record?
Its Background signal is 0.100.

For Phage-435 (MDWCPRDRWVDCYA), which Background signal is on record?
Its Background signal is 0.157.

Which Background signal does the source give for Phage-448 (MAWCPWASFDECLA) here?
The Background signal was 0.104.

With Phage-433 (MAWCPWAQFDECLA) as the substance, how does the Background signal read?
Its Background signal is 0.073.

Which Background signal does the source give for Phage-401 (MDWCPLDMWVLCFA) here?
The Background signal was 0.085.

Which Background signal does the source give for “Phage-59 (MDWCPRDSWHLCFA; left off: large carriers)” here?
Its Background signal is 0.073.

For “Phage-62 (MDWCPSYLWNECFF; left off: large carriers)”, which Background signal is on record?
The Background signal was 0.065.

With Phage-124 (MDWCPRPLWDMCFF) as the substance, how does the Background signal read?
The Background signal was 0.063.

For Phage-449 (MVDCPLISFDECLA), which Background signal is on record?
Its Background signal is 0.246.

Which Background signal does the source give for “Phage-57 (MDWCPRHRWVDCFY; left off: large carriers)” here?
Its Background signal is 0.073.

Which Background signal does the source give for Phage-95 (MDWCPRFLWSECFN) here?
Its Background signal is 0.062.

How did the Background signal turn out when Phage-140 (MDWCPMDLWDVCFN) was run?
The Background signal was 0.090.

Phage-130 (MDWCPRYLWDACFF) was tested. Which Background signal did it give?
The Background signal was 0.066.

With Phage-93 (MDWCPRYLWTVCFS) as the substance, how does the Background signal read?
Its Background signal is 0.115.

With Phage-94 (MDWCPRDLWSLCFY) as the substance, how does the Background signal read?
The Background signal was 0.065.

With Phage-426 (MFLCPSAMWNRCFY) as the substance, how does the Background signal read?
Its Background signal is 0.069.

Which Background signal does the source give for “Phage-51 (MDWCPMDLWDYCFN; not fully specified; cysteine pairing not given here)” here?
The Background signal was 0.071.

For Phage-438 (MDWCPMSRWAFCFD), which Background signal is on record?
The Background signal was 0.071.

With Phage-111 (MDWCPFYLWNECFY) as the substance, how does the Background signal read?
The Background signal was 0.099.

“Phage-48 (IDWCPRYLWDECYN; not fully specified; cysteine pairing not given here)” was tested. Which Background signal did it give?
Its Background signal is 0.061.

How did the Background signal turn out when Phage-100 (MDWCPRYLWTECFN) was run?
The Background signal was 0.062.

For Phage-128 (MDWCPRDLWIECFF), which Background signal is on record?
Its Background signal is 0.084.

“Phage-64 (MDWCPRALWAECFN; left off: large carriers)” was tested. Which Background signal did it give?
The Background signal was 0.068.

same assay, conditions: background (no anti-CD28 scFv)

With Phage-290 (MDWCPRDLWSVCFS) as the substance, how does the Background signal read?
Its Background signal is 0.090.

With Phage-386 (NHWCPTTLWNRCVA) as the substance, how does the Background signal read?
The Background signal was 0.293.

Phage-340 (MSWCPIDLWSECFA) was tested. Which Background signal did it give?
The Background signal was 0.072.

Which Background signal does the source give for Phage-286 (MERCPRYLWHMCYS) here?
The Background signal was 0.164.

Phage-353 (IDWCPLHLWHECYH) was tested. Which Background signal did it give?
The Background signal was 0.067.

For Phage-363 (MNWCPMHLWAECFN), which Background signal is on record?
The Background signal was 0.087.

For Phage-335 (MDWCPRFLWDYCFA), which Background signal is on record?
Its Background signal is 0.146.

With Phage-292 (MDWCPRALWDHCFF) as the substance, how does the Background signal read?
Its Background signal is 0.081.

Which Background signal does the source give for “Phage-277 (MDWCPRSHWSECFS; not fully specified; cysteine pairing not given here)” here?
Its Background signal is 0.080.

For Phage-387 (MDWCPRHLWLECFN), which Background signal is on record?
Its Background signal is 0.064.

Phage-370 (MTWCPAYLWHECFN) was tested. Which Background signal did it give?
The Background signal was 0.086.

With Phage-301 (MDWCPRYLWHECFF) as the substance, how does the Background signal read?
Its Background signal is 0.082.

Which Background signal does the source give for Phage-310 (MDWCPRDLWDECFN) here?
Its Background signal is 0.066.

Which Background signal does the source give for Phage-348 (MAWCPWYLWDECFN) here?
The Background signal was 0.200.

With Phage-371 (MAWCPRYLWAECFF) as the substance, how does the Background signal read?
The Background signal was 0.510.

For Phage-288 (MDWCPIALWDFCFA), which Background signal is on record?
The Background signal was 0.073.

With Phage-364 (MDWCPRSLWAQCFY) as the substance, how does the Background signal read?
Its Background signal is 0.067.

How did the Background signal turn out when “Phage-279 (MDWCPRYLWAECFN; not fully specified; cysteine pairing not given here)” was run?
Its Background signal is 0.068.

Phage-330 (MDWCPRFLWDVCFN) was tested. Which Background signal did it give?
Its Background signal is 0.100.

For Phage-356 (MDWCPMYLWDECFF), which Background signal is on record?
Its Background signal is 0.082.

Which Background signal does the source give for Phage-291 (MDWCPRYLWHVCFY) here?
Its Background signal is 0.227.

Phage-339 (MDWCPRTLWDQCFF) was tested. Which Background signal did it give?
The Background signal was 0.088.

Which Background signal does the source give for Phage-313 (MDWCPRSLWNYCFN) here?
Its Background signal is 0.076.

How did the Background signal turn out when Phage-324 (MDWCPRHLWYECFS) was run?
The Background signal was 0.216.

With Phage-383 (LAGCQRDLATVCVI) as the substance, how does the Background signal read?
Its Background signal is 0.068.

Which Background signal does the source give for Phage-373 (MDWCPRILWSDCFN) here?
The Background signal was 0.082.

Phage-329 (MDWCPRALWNVCFA) was tested. Which Background signal did it give?
Its Background signal is 0.071.

Phage-346 (MDWCPRHLWHACFS) was tested. Which Background signal did it give?
Its Background signal is 0.073.

With Phage-309 (MDWCPMFLWHECFN) as the substance, how does the Background signal read?
The Background signal was 0.170.

For Phage-382 (ITWCPTSLWNRCLV), which Background signal is on record?
The Background signal was 0.077.

With Phage-315 (MDWCPTYLWHVCFS) as the substance, how does the Background signal read?
Its Background signal is 0.089.

For Phage-311 (MDWCPRDLWYQCFN), which Background signal is on record?
The Background signal was 0.069.

Phage-354 (MDWCPRYLWLECFN) was tested. Which Background signal did it give?
Its Background signal is 0.083.

With Phage-391 (MDWCPFDMWADCFF) as the substance, how does the Background signal read?
Its Background signal is 0.063.

With Phage-326 (MFWCPITLWNECFN) as the substance, how does the Background signal read?
The Background signal was 0.075.

“Phage-275 (MDWCPRDHWVDCYS; not fully specified; cysteine pairing not given here)” was tested. Which Background signal did it give?
Its Background signal is 0.172.
